Source: paper PMC4770306, “Structure-Based Identification of Inhibitory Fragments Targeting the p300/CBP-Associated Factor Bromodomain” (Journal of Medicinal Chemistry, 2016)

Tests used:
Assay type in all cases: binding
PCAF bromodomain [1] = target: T1, PCAF bromodomain (Homo sapiens, UniProt Q92831); assay: SPR (Biacore) of TINS fragment hits on immobilized PCAF; details: for Kd: SPR, 20 °C, six concentrations, aqueous buffer without DMSO; for LE: from SPR KD and heavy atom count
T1 construct: made in house
T1 sequence (Q92831 723-827 limits assumed): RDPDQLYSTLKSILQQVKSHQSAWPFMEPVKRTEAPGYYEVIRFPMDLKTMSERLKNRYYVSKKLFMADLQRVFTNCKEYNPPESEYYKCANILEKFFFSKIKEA
Protocol: Recombinant PCAF was biotinylated on the N-terminal AVI tag in vivo. Purified, biotinylated PCAF was captured onto a NeutraAvidin-coated CM5 sensor chip surface in 20 mM sodium phosphate pH7.5, 150 mM NaCl, 2 mM DTT, and 0.05% P20 Tween. This buffer was subsequently used for all studies. The immobilization level was 10150 RU. All SPR experiments were performed using a Biacore T200 instrument at 20 °C. Fragment hits from TINS were directly solubilized in the running buffer. Each fragment was titrated at six different concentrations for KD determination. An acetyl-Lys 16 peptide derived from H4 was used to monitor the ligand binding capacity of the immobilized PCAF bromodomain at regular intervals.

PCAF bromodomain [2] = target: T2, PCAF bromodomain (Homo sapiens, UniProt Q92831); assay: Isothermal titration calorimetry (ITC) with PCAF; details: from ITC Kd
T2 construct: The PCAF bromodomain (aa 715–831) containing an N-terminal His6-tag was recombinantly expressed in Escherichia coli Rosetta; His6 (N, cleaved yes); made in house; host or cells: Escherichia coli Rosetta
T2 sequence (Q92831 715-831): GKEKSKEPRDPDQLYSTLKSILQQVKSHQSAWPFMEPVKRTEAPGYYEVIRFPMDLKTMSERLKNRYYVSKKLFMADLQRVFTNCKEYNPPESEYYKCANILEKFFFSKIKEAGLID

ATAD2A = target: T3, ATAD2A (Homo sapiens, UniProt Q6PL18); assay: Alphascreen assay ATAD2A
T3 sequence (Q6PL18 1-1390): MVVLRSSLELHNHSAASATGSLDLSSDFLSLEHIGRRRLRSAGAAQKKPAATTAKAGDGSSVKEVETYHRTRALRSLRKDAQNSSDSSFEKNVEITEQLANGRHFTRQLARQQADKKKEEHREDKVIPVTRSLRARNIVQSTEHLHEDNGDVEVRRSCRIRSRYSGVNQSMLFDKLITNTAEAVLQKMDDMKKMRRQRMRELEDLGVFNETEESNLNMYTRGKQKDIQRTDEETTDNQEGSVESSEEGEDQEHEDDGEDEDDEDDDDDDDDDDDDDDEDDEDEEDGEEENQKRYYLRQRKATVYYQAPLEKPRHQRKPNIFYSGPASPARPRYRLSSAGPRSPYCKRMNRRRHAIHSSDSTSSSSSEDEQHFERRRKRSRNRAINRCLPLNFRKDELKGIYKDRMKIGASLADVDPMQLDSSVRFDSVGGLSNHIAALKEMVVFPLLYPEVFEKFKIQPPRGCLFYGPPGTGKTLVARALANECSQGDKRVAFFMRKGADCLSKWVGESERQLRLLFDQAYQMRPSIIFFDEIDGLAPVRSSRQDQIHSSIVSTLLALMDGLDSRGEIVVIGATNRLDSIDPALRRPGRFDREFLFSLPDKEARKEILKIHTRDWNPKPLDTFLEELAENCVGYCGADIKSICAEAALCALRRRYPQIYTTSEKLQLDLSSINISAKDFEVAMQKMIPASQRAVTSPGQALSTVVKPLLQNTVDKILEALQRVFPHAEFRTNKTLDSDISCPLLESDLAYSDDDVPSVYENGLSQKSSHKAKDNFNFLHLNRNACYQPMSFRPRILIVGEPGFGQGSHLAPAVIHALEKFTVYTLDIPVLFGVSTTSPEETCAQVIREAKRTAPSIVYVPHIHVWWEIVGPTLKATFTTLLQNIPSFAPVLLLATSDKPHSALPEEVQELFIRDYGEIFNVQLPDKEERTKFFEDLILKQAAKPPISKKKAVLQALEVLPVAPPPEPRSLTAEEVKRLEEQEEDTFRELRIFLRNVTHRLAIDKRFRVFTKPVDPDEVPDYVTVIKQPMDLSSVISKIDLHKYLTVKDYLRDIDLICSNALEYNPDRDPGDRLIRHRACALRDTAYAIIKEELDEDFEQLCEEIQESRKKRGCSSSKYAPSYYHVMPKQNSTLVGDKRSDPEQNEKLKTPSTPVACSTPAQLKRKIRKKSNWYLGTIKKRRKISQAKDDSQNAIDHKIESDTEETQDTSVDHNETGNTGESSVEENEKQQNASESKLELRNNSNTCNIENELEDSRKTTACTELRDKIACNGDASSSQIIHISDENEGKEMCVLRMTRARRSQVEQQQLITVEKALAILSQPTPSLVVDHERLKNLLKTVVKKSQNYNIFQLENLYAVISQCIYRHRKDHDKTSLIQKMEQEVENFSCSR

BAZ1BA = target: T4, BAZ1BA (Homo sapiens, UniProt Q9UIG0); assay: Alphascreen assay BAZ1BA
T4 sequence (Q9UIG0 1-1483): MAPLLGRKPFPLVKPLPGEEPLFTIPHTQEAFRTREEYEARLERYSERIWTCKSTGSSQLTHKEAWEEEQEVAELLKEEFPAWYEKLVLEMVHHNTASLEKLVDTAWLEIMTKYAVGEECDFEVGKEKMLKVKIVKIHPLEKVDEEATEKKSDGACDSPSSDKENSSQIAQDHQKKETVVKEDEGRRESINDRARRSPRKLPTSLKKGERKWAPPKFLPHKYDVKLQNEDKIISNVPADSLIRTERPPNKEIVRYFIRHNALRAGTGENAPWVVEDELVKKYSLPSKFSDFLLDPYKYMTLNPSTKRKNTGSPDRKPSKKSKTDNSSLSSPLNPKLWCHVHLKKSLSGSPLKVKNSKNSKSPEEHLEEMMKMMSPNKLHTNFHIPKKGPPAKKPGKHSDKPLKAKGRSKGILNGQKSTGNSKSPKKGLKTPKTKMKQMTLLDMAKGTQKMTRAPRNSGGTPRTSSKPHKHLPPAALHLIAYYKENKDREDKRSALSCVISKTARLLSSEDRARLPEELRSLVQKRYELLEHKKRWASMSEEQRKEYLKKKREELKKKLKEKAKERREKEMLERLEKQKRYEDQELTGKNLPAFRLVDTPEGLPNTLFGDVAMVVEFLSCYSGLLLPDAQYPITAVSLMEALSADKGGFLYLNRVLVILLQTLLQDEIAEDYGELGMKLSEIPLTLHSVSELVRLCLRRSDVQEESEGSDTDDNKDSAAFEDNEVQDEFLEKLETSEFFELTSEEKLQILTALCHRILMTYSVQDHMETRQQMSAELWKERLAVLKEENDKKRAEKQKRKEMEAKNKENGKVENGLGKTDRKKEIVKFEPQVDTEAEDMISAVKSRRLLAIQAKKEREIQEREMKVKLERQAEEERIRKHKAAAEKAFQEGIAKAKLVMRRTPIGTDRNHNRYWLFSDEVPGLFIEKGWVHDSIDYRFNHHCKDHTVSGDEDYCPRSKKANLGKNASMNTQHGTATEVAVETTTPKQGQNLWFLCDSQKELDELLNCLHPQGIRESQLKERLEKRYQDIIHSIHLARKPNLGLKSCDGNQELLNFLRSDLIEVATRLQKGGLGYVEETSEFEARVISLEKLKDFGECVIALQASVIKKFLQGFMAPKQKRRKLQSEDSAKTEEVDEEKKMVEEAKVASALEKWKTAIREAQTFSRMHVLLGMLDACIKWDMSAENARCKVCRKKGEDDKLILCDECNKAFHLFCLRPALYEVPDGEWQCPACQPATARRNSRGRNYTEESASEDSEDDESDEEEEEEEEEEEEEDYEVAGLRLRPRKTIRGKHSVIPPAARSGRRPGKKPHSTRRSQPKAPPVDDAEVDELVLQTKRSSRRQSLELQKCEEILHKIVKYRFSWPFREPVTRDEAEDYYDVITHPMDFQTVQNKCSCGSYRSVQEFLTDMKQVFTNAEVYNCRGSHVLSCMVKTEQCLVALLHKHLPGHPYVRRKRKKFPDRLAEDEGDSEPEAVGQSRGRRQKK

BAZ2BA = BAZ2BA (Homo sapiens, UniProt Q9UIF8); assay: Alphascreen assay BAZ2BA
Sequence of BAZ2BA (Q9UIF8 whole entry): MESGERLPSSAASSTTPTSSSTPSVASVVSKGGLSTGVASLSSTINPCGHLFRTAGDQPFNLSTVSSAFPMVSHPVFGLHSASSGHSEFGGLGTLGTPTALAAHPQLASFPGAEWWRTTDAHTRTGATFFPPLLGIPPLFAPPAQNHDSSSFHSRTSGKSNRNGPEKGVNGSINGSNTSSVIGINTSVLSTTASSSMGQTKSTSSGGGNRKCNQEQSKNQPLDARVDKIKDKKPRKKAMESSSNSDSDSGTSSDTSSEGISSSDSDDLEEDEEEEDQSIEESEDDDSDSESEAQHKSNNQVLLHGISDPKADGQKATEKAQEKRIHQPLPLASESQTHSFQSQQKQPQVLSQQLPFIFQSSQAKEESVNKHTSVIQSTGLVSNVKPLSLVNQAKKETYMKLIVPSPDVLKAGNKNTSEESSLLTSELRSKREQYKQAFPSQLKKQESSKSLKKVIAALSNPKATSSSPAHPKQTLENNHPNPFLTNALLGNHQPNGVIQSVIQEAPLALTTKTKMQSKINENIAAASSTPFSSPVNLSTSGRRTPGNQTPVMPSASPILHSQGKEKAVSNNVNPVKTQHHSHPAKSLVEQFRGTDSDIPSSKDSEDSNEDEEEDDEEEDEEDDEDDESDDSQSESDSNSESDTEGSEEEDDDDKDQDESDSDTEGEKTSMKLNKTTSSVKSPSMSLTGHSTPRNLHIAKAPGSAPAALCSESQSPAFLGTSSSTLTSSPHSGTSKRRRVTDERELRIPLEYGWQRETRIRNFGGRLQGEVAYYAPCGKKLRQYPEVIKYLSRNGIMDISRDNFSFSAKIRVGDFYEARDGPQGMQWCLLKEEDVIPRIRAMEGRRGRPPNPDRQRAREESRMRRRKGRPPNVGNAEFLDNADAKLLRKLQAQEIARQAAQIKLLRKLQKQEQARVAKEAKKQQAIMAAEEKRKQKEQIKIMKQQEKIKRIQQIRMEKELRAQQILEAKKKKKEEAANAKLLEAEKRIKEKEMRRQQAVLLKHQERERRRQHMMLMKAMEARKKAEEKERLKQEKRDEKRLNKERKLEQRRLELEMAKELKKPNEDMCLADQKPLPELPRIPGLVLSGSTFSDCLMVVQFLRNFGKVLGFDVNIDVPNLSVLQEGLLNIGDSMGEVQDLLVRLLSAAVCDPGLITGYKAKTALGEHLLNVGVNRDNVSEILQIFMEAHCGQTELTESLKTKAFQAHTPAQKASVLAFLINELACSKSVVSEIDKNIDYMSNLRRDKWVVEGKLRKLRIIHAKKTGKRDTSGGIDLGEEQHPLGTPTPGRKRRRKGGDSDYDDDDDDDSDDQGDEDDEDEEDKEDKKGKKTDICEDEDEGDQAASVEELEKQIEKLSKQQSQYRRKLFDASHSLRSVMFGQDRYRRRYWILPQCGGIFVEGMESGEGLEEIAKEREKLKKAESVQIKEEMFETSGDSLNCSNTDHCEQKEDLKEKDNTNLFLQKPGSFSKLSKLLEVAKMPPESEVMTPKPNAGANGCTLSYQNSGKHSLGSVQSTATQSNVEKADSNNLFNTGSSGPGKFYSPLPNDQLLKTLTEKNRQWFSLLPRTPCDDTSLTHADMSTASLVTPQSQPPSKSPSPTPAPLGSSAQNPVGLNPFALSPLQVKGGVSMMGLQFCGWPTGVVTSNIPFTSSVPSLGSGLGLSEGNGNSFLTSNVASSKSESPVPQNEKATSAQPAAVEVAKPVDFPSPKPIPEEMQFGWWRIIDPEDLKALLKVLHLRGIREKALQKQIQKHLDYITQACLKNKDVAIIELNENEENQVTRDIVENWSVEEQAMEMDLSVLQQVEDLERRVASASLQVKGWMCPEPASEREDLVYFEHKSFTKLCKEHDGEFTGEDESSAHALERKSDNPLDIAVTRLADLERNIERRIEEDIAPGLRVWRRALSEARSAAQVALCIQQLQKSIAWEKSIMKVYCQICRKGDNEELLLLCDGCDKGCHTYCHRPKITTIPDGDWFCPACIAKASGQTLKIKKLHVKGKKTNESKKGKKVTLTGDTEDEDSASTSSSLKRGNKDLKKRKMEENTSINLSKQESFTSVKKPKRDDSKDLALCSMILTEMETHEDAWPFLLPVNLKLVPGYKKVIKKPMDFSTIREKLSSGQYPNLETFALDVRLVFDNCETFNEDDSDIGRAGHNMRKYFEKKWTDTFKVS

BRD9A = target: T5, BRD9A (Homo sapiens, UniProt Q9H8M2); assay: Alphascreen assay BRD9A; details: for % Inhibition at 25 µM / inhibition at 25 µM: BRD9A; for IC50: read-out: BRD9 IC50
T5 sequence (Q9H8M2 1-597): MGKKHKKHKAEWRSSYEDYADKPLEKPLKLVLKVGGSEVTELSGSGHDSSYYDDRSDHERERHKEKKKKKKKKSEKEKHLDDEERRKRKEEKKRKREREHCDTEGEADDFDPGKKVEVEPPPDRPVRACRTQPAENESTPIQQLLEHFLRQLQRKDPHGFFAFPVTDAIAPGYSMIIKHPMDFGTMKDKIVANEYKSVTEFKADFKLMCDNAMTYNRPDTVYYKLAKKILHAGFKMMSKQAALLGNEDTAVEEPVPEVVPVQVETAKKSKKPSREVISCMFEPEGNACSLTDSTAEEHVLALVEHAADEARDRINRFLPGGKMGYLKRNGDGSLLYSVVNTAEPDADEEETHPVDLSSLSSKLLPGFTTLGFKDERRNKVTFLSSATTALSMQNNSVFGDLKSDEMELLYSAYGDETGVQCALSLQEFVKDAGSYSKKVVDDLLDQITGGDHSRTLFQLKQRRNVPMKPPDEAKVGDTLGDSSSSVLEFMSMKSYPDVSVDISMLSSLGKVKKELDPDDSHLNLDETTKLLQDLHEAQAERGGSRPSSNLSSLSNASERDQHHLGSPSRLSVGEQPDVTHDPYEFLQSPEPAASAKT

BRPF3A = target: T6, BRPF3A (Homo sapiens, UniProt Q9ULD4); assay: Alphascreen assay BRPF3A
T6 sequence (Q9ULD4 1-1205): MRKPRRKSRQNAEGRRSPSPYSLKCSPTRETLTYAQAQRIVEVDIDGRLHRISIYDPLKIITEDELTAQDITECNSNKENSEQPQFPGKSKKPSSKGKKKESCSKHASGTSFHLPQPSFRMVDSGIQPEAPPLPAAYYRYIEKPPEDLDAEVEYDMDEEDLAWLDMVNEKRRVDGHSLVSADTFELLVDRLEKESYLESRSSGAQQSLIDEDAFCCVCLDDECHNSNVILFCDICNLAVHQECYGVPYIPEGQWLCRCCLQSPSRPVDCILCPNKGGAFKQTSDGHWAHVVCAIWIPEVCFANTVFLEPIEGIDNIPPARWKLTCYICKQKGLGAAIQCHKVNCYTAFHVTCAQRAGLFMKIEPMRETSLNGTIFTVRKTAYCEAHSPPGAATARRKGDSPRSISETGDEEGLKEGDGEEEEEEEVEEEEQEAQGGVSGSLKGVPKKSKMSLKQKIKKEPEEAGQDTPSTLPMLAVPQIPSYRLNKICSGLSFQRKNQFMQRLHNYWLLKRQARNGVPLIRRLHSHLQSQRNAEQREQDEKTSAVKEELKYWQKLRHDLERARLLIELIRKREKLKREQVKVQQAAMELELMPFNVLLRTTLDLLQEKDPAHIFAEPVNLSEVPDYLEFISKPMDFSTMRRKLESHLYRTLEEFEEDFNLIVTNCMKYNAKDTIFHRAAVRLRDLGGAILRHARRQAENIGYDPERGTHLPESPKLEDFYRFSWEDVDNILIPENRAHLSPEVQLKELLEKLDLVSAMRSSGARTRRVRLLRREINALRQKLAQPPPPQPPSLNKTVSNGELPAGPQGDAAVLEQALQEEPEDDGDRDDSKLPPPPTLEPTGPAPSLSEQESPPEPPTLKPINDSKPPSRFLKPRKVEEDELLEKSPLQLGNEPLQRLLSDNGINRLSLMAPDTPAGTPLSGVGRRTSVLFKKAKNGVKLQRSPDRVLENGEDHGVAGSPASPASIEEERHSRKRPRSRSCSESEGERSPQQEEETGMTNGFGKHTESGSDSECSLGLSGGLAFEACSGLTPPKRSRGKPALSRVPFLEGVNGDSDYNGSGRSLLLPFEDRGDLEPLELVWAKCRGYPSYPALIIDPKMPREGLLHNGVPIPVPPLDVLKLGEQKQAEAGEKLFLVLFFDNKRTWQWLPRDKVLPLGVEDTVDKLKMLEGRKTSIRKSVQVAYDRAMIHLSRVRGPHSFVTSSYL

CECR2A = CECR2A (Homo sapiens, UniProt Q9BXF3); assay: Alphascreen assay CECR2A
Sequence of CECR2A (Q9BXF3 whole entry): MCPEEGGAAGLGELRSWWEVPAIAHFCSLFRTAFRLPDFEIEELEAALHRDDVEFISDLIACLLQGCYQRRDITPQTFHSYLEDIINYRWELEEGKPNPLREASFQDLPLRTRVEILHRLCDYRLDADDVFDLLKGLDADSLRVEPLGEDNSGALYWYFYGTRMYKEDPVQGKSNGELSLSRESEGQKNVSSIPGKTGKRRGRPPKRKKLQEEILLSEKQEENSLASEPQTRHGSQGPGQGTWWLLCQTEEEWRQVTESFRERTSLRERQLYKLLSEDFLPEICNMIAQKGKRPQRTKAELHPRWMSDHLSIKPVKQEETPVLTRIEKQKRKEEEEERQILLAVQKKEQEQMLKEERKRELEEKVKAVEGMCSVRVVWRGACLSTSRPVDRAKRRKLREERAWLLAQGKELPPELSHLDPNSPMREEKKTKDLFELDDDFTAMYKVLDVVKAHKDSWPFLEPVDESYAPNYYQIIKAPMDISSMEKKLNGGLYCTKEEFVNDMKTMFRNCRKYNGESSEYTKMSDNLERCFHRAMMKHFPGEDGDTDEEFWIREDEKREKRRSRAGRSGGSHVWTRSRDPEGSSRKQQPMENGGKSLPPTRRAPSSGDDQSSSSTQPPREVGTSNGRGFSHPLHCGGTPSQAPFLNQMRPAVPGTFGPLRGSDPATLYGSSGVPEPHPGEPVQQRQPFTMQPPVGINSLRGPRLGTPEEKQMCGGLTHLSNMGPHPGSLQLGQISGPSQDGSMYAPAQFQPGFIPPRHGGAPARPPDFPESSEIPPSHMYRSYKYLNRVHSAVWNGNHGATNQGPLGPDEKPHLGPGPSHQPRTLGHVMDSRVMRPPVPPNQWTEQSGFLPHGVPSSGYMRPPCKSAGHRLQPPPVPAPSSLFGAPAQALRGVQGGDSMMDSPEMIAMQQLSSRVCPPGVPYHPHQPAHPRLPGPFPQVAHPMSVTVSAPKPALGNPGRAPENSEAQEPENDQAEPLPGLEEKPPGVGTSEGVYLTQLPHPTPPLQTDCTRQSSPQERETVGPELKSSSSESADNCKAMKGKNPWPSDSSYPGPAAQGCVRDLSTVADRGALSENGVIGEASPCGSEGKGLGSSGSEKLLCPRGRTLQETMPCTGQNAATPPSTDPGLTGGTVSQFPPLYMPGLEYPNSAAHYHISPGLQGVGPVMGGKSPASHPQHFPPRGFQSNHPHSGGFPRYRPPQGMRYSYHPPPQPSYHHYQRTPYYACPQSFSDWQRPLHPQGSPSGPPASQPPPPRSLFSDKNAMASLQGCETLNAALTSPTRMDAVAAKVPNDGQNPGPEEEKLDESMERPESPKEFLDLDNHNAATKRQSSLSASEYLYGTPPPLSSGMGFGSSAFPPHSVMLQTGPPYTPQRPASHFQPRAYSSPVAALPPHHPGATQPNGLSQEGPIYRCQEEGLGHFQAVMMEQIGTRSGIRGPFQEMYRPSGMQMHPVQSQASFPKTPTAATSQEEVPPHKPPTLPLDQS

PCAF bromodomain [3] = target: T2, PCAF bromodomain; assay: Thermal stability shift assay (DSF), PCAF bromodomain; details: compound 1 mM, protein 2 μM, average of triplicates

Row | Compound | Kd (PCAF bromodomain [1]) [µM] | LE (PCAF bromodomain [1]) | inhibition at 25 µM (ATAD2A) [%] | inhibition at 25 µM (BAZ1BA) [%] | inhibition at 25 µM (BAZ2BA) [%] | % Inhibition at 25 µM (BRD9A) | inhibition at 25 µM (BRD9A) [%] | IC50 (BRD9A) [µM] | inhibition at 25 µM (BRPF3A) [%] | inhibition at 25 µM (CECR2A) [%] | also measured
1 | NC1CCN(C(=O)C2CC2)CC1 [compound 10] | 6910 | 0.24 |  |  |  |  |  |  |  |  | 
2 | CNC(=O)c1cc(OCC(=O)Nc2ccccc2)ccc1OC1CCOCC1 [compound 14, N-methyl-5-(2-oxo-2-(phenylamino)ethoxy)-2-((tetrahydro-2H-pyran-4-yl)oxy)benzamide] |  |  |  |  |  |  |  |  |  |  | ligand efficiency (LE) (PCAF bromodomain [2]): 0.24
3 | Cc1cc(=O)n(C)c2cc(NS(C)(=O)=O)ccc12 [compound 13, N-(1,4-dimethyl-2-oxo-1,2-dihydroquinolin-7-yl)methanesulfonam] |  |  | 1.4 | -0.2 | 5.3 | strong inhibition | 84.1 | 5.7 | 28.7 | 3.9 | 
4 | CC(=O)Nc1ccc2c(C)cc(=O)n(C)c2c1 [compound 12, N-(1,4-dimethyl-2-oxo-1,2-dihydroquinolin-7-yl)acetamide] |  |  | 2.4 | 0.7 | -2.6 | strong inhibition | 82.8 | 12.5 | 46.8 | 38.7 | ΔTm (°C) at 1 mM (± SEM) (PCAF bromodomain [3]): 2.6–2.9 °C
5 | Cc1nn(CCO)c2c1C(=O)CCC2 [compound 11] | 488 | 0.32 |  |  |  |  |  |  |  |  | 
6 | Cc1c(N)c(=O)n(-c2ccccc2)n1C [compound 9] | 2680 | 0.23 |  |  |  |  |  |  |  |  | 
